Test results published in patent publication US5783597A, “2,5-disubstituted thiophenes: inhibitors of 5-lipoxygenase and inducible cyclooxygenase (COX-2) enzymes, composition and use” (Ortho Pharmaceutical Corporation, priority 1997, dated 1998).

Assays:
[1] = molecular target: T1, Human Prostaglandin H2 Synthase Typ II (Cox-2) (Homo sapiens, UniProt P35354); test: Human Prostaglandin H2 Synthase Typ II (Cox-2) Whole Cell Assay, ECV-304 cells (Procedure III); format: cell-based; settings: ECV-304 whole cells, PGE2 produced; read-out: Procedure III (COX-2) Wh Cell IC50
T1 construct: endogenous in cells; host or cells: ECV-304 cells treated with PMA and ionomycin for 16 hours
T1 sequence (P35354 18-604): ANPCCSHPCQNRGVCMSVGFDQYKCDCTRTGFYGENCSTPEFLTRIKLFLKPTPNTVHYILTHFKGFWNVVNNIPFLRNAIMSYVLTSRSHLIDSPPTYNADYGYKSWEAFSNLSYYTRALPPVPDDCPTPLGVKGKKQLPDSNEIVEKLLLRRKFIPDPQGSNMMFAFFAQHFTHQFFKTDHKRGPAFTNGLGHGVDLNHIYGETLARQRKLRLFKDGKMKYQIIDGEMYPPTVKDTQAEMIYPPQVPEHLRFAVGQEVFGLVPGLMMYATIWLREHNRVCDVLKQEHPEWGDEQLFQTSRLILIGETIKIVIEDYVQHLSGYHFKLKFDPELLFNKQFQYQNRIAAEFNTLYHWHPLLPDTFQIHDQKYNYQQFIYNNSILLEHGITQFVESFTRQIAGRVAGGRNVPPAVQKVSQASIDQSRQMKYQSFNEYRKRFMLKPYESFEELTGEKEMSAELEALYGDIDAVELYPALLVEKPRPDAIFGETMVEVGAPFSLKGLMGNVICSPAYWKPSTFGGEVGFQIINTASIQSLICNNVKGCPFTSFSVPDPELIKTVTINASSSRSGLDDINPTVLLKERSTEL
Method: Human Prostaglandin H2 Synthase Typ II (Cox-2) Whole Cell Assay (Multiple Concentrations)
ECV-304 (human, endothelial, umbilical cord) cells are maintained in culture in a suitable medium, and are trypsinized and plated at a density of 1×10^6 cells per well of a 6 well plate prior to assay. Approximately 28 hours later, 50 μg/ml PMA and […] ionomycin (both final concentrations) are added to each well and incubated for an additional 16 hours. Vehicle or test compounds are incubated with the cells for five minutes prior to initiation of Cox-2 enzyme activity by the addition of 30 μM arachidonic acid. Ten minutes later, an aliquot of the supernatant is withdrawn and the amount of PGE2 present quantitated by radioimmunoassay. Activity, reported as percent inhibition of PGE2 produced, is calculated as follows: […]

LTB4 levels = test: Carrageenan-induced inflammation in subcutaneous chambers in beagle dogs: LTB4 levels in fluid exudate (Procedure IV); format: in vivo; settings: oral
Method: Carrageenan-Induced Localized Inflammation In Subcutaneous Chambers Implanted In Beagle Dogs
Sterile perforated teflon chambers (wiffle golf balls) were surgically implanted subcutaneously in the dorsal neck fold of beagle dogs (8-13 kg, mixed sex). After a recovery period of 1 month, a 1 ml sample of fluid exudate from each dog was aspirated from within the chamber using a 1 ml syringe and 20 gauge 1 inch needle inserted through one of the perforations in the ball. Immediately after obtaining the sample, 1.5 ml of 0.33% sterile carrageenan lambda (Sigma Chemical Co., St. Louis, Mo.) was injected into the chamber. Dilutions of the baseline samples were made in saline and analyzed for leukocyte count using a Coulter Counter (6.08-50 μm range). The sample was also analyzed for concentrations of PGE2 and LTB4 by adding 200 μl of sample to 1 ml ethanol and centrifuging the precipitate (1,500 X g, 7 min). The supernatant was aspirated and stored at 0° C. until enzyme linked immunosorbant assays (ELISAs) were performed (ELISA Technologies, Lexington, Ky.). […]
Drug effects can be evaluated on several important aspects of inflammation using this in-vivo assay. […] Selectivity of a COX inhibitor can be determined by comparing PGE2 inhibition in peripheral blood (COX-1) to that of the inflammatory fluid exudate in the chamber (COX-2).

IC50 [1]: 1810 nM
Structure (SMILES): CS(=O)(=O)Nc1ccc(Oc2ccc(F)cc2)s1 [Example 1]
ED50 (LTB4 levels; Canis lupus familiaris, inflammatory chamber exudate, read-out: ED50 for inhibition of fluid LTB4 levels): < 0.01 mg/kg
inhibition of LTB4 levels measured in the fluid (LTB4 levels; inflammatory chambers): dose related inhibition
